Data published in ChEMBL document CHEMBL1156193, “Discovery of a long-acting, peripherally selective inhibitor of catechol-O-methyltransferase” (2010).

Assays:
[1] = Cytotoxicity against mouse Neuro2a cells assessed as cell viability at 30 uM after 24 hrs; format: functional; conditions: N2a, read-out: Activity
Mus musculus [2] = assay: Inhibition of COMT in NMRI mouse liver homogenates assessed as metanephrine formation at 3 mg/kg, po measured after 3 hrs relative to control; values are per cent of control
Rattus norvegicus = assay: Inhibition of COMT in Wistar rat liver homogenates assessed as metanephrine formation at 3 mg/kg, po measured after 3 hrs relative to control; values are per cent of control
[3] = molecular target: T1, Catechol O-methyltransferase (Rattus norvegicus) (UniProt P22734); assay: Inhibition of COMT in rat liver homogenates assessed as metanephrine formation at 3 uM relative to control; values are per cent of control
T1 sequence (whole entry): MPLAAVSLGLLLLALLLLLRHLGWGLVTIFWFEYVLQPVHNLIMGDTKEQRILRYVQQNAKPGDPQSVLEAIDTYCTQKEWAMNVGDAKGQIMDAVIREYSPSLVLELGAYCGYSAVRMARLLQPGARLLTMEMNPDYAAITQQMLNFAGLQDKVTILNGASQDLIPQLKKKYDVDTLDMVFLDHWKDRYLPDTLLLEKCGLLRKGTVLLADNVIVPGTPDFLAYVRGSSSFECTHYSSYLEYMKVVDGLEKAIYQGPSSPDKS

Mus musculus [4] = assay: Inhibition of COMT in NMRI mouse liver homogenates assessed as metanephrine formation at 30 mg/kg, po measured after 6 hrs relative to control; values are per cent of control
[5] = molecular target: T1, Catechol O-methyltransferase (Rattus norvegicus); assay: Inhibition of COMT in rat liver homogenates assessed as metanephrine formation at 30 uM relative to control; values are per cent of control

## CC(=O)N1CCN(c2noc(-c3cc(O)c(O)c([N+](=O)[O-])c3)n2)CC1
[1]
  viability at 30 µM: 104%
Mus musculus [2]
  level, % of control at 3 mg/kg: 68.2%

## Cc1ccc(-c2noc(-c3cc(O)c(O)c([N+](=O)[O-])c3)n2)c(Cl)[n+]1[O-]
[1]
  viability at 30 µM: 100%
Rattus norvegicus
  level, % of control at 3 mg/kg: 31.6%

## N#Cc1ccc(-n2nccc2-c2cc(O)c(O)c([N+](=O)[O-])c2)cc1
[3]
  residual activity: 0.3%
Mus musculus [4]
  level, % of control at 30 mg/kg: 61.1%

## O=[N+]([O-])c1cc(-c2nc(-c3ccc(Br)cc3)no2)cc(O)c1O
[1]
  viability at 30 µM: 12.2%
Mus musculus [2]
  level, % of control at 3 mg/kg: 12.7%

## O=[N+]([O-])c1cc(-c2nc(-c3ccc[n+]([O-])c3C(F)(F)F)no2)cc(O)c1O
[1]
  viability at 30 µM: 96.4%
Rattus norvegicus
  level, % of control at 3 mg/kg: 5.5%

## O=[N+]([O-])c1cc(-c2nc(-c3cnccn3)no2)cc(O)c1O
[1]
  viability at 30 µM: 60.5%

## O=[N+]([O-])c1cc(-c2ccn[nH]2)cc(O)c1O
[3]
  residual activity: 0%

## Cc1c(C)c(C)[n+]([O-])c(Cl)c1-c1noc(-c2cc(O)c(O)c([N+](=O)[O-])c2)n1
[1]
  viability at 30 µM: 95.1%
Rattus norvegicus
  level, % of control at 3 mg/kg: 7.9%

## CN1CCN(c2noc(-c3cc(O)c(O)c([N+](=O)[O-])c3)n2)CC1
[1]
  viability at 30 µM: 90.2%
Mus musculus [2]
  level, % of control at 3 mg/kg: 56.8%

## O=[N+]([O-])c1cc(-c2c(-c3ccccc3)cnn2-c2cccc(Cl)c2)cc(O)c1O
[3]
  residual activity: 68.6%

## Cc1c(-c2noc(-c3cc(O)c(O)c([N+](=O)[O-])c3)n2)ccc(C(F)(F)F)[n+]1[O-]
[1]
  viability at 30 µM: 62.2%
Rattus norvegicus
  level, % of control at 3 mg/kg: 13.9%

## O=[N+]([O-])c1cc(-c2ccnn2-c2ccccc2)cc(O)c1O
[3]
  residual activity: 0%
Mus musculus [4]
  level, % of control at 30 mg/kg: 60.8%

## O=[N+]([O-])c1cc(-c2nc(-c3c[n+]([O-])ccc3C(F)(F)F)no2)cc(O)c1O
[1]
  viability at 30 µM: 93.4%
Rattus norvegicus
  level, % of control at 3 mg/kg: 23.6%

## CN1CCN(C(=O)c2ccc(-c3noc(-c4cc(O)c(O)c([N+](=O)[O-])c4)n3)cc2)CC1
[1]
  viability at 30 µM: 90.7%
Mus musculus [2]
  level, % of control at 3 mg/kg: 74%

## Cc1ccc(-n2nccc2-c2cc(O)c(O)c([N+](=O)[O-])c2)cc1
[3]
  residual activity: 0%

## O=[N+]([O-])c1cc(-c2ccnc(-c3ccccc3)n2)cc(O)c1O
Mus musculus [4]
  level, % of control at 30 mg/kg: 44.8%

## Cc1ccc(-c2noc(-c3cc(O)c(O)c([N+](=O)[O-])c3)n2)c(Cl)n1
[1]
  viability at 30 µM: 53.1%

## O=[N+]([O-])c1cc(-c2ccnn2-c2cccc(Cl)c2)cc(O)c1O
[3]
  residual activity: 0%

## Cc1ccc(C(=O)n2ncc(-c3ccccc3)c2-c2cc(O)c(O)c([N+](=O)[O-])c2)cc1
[3]
  residual activity: 2.8%
Mus musculus [4]
  level, % of control at 30 mg/kg: 89.3%

## Nc1nc(-c2cc(O)c(O)c([N+](=O)[O-])c2)c(-c2ccccc2)s1
Mus musculus [4]
  level, % of control at 30 mg/kg: 77.4%

## O=[N+]([O-])c1cc(-c2nc(N3CCOCC3)no2)cc(O)c1O
[1]
  viability at 30 µM: 67.5%
Mus musculus [2]
  level, % of control at 3 mg/kg: 45.8%

## Cc1nc(-c2cc(O)c(O)c([N+](=O)[O-])c2)c(-c2ccccc2)o1
Mus musculus [4]
  level, % of control at 30 mg/kg: 84.1%

## O=[N+]([O-])c1cc(-c2nc(-c3ccnc(F)c3)no2)cc(O)c1O
[1]
  viability at 30 µM: 25%

## O=C(Cc1ccccc1)c1cc(O)c(O)c([N+](=O)[O-])c1 [NEBICAPONE]
Mus musculus [4]
  level, % of control at 30 mg/kg: 85.7%

## Oc1cc(-c2ccnn2-c2ccccc2)cc(O)c1O
[5]
  residual activity: 0.8%

## NC(=O)c1ccc(-c2noc(-c3cc(O)c(O)c([N+](=O)[O-])c3)n2)cc1
[1]
  viability at 30 µM: 91.2%
Mus musculus [2]
  level, % of control at 3 mg/kg: 79.2%

## Cn1nccc1-c1cc(O)c(O)c([N+](=O)[O-])c1
[3]
  residual activity: 1.1%
